Measured values taken from patent US8883763B2 (Universite Joseph Fourier, priority 2010, dated 2014).

Key:
PP1α (PP1CA) = biological target: T1, PP1α (PP1CA) (Oryctolagus cuniculus, UniProt P62139); assay: Protein phosphatase test (PP1 activity, DiFMUP fluorescent substrate); type: biochemical; settings: PP1CA at 80 mU, fluorescent substrate (50 μM), molecules from 50 μM to 50 nM; read-out: PP1 Inhibition IC50
T1 construct: purchased New England Biolabs P0754
Procedure, shortened: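 PP1α (30 or 80 mU) in 100 mM Tris-HCl pH 7.5, 4 mM DTT, 0.2 mM EDTA, 0.5 mM MnCl2 was preincubated 15 min with compound (50 μM to 50 nM), then given 60 μM DiFMUP for 20 min at 37 °C. Phosphatase activity was read as fluorescence at 355-460 nm, three times in duplicate.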

bovine brain tubulin = assay: In vitro tubulin polymerization test (turbidimetry at 350 nm); type: biochemical; settings: molecules at 50 μM, calculated at t=3000 s, DMSO control = 100%
Procedure, shortened: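 Bovine brain tubulin was assembled at 37 °C in BRB80 (80 mM K-PIPES pH 6.8, 1 mM MgCl2, 1 mM EGTA) with 1 mM GTP. The 50 μM tests used compounds at 50 μM, run in triplicate. Turbidity at 350 nm was read at t=3000 s and expressed relative to control taken as 100%.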

HeLa cells = assay: Indirect immunofluorescence: effect on HeLa cells (mitotic arrest, microtubule depolymerization); type: cell-based, human; set-up: key to Effect on Hela at 25 μM / Effect on Hela at 100 μM / Effect on Hela at 50 and 100 μM / Effect on Hela at 50 μM: —: −: no activity on the cells at 25 μM (if there is an effect at high concentrations, this is specified in the table).; *: weak activity (MA and/or slight depolymerization of the MTs and/or slight inhibition of proliferation),; **: average activity (MA and/or moderate depolymerization of the MTs and/or moderate inhibition of proliferation),; ***: strong activity (MA and/or pronounced depolymerization of the MTs and/or pronounced inhibition of proliferation),; ****: very strong activity (MA and/or very pronounced depolymerization of the MTs and/or strong inhibition of proliferation); settings: 24 hours; for Effect on Hela at 25 μM: mitotic index and/or depolymerization of the MTs
Procedure, shortened: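 HeLa cells exposed 24 h to compound (100 μM to 50 nM; primary series 1–10 μM), DMSO controls. PFA/glutaraldehyde-fixed cells immunostained for α-tubulin, actin (phalloidin) and DNA (Hoechst); fluorescence microscopy scored phenotypes and mitotic index, with mitotic index and/or MT depolymerization evaluated at 25 μM.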

HMEC cells = assay: Proliferation of HMEC cells (GI50); type: cell-based; settings: Homo sapiens, 120 h, 50 μM to 1 nM for 5 days
Procedure, shortened: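 Cells seeded at 1,000/well (10% confluence) and exposed 5 days (120 h) to compound from 1 nM up to 50–100 μM. Live cells counted by Hoechst 33342 staining under fluorescence microscopy; GI50 is concentration halving proliferation versus control, mean of two triplicate experiments.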

T1 sequence (P62139 whole entry): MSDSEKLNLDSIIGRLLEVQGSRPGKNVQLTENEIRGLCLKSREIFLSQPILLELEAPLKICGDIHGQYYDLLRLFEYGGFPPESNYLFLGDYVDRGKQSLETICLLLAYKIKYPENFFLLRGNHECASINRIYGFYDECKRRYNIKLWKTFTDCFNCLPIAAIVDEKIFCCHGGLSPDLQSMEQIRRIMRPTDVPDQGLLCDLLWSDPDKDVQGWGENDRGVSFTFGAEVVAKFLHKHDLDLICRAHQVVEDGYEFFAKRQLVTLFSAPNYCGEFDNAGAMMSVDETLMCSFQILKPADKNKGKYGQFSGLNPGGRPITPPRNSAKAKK

Row | IC50 (PP1α (PP1CA)) | melting point | Structure (SMILES) | Tubulin polymerization inhibition (bovine brain tubulin) | Effect on Hela at 25 μM (HeLa cells) | GI50 (HMEC cells) | Effect on Hela at 50 μM (HeLa cells; 50 μM) | Effect on Hela at 100 μM (HeLa cells) | Effect on Hela at 50 and 100 μM (HeLa cells; 50 and 100 μM)
1 | 10 to 24 µM | 246 to 248 °C | C#Cc1ccc(-c2[nH]c(=O)c3cc(OC)ccc3c2[N+](=O)[O-])cc1 [Compound 36, 3-(4-Ethynylphenyl)-7-methoxy-4-nitroisoquinolin-1(2H)-one] | +++ ((+++) signifies that the molecule induces tubulin assembly inhibition in vitro of more than 50% with respect to the DMSO control.) | **** | ≤ 0.1 µM |  |  | 
2 | ≥ 50 µM | 232 °C | COc1ccc(-c2[nH]c(=O)c3cc(OC)ccc3c2C=O)cc1 [Compound 25, 7-Methoxy-3-(4-methoxyphenyl)isoquinoline-1(2H)-one-4-carbaldehyde] | +++ ((+++) signifies that the molecule induces tubulin assembly inhibition in vitro of more than 50% with respect to the DMSO control.) | **** | 0.1 to 1 µM |  |  | 
3 | 10 to 24 µM | 252 to 254 °C | COc1ccc2c([N+](=O)[O-])c(-c3ccc(OCc4ccccc4)cc3)[nH]c(=O)c2c1 [Compound 46, 3-(4-(Benzyloxy)phenyl)-7-methoxy-4-nitroisoquinolin-1(2H)-one] | + ((+) signifies that the molecule induces tubulin assembly inhibition in vitro comprised between 6 and 25% of the DMSO control.) | — | > 50 µM |  |  | 
4 | 10 to 24 µM | 238 °C | COc1ccc(-c2[nH]c(=O)c3cc(OC)ccc3c2-n2cccc2)cc1 [Compound 39, 4-(Pyrrol-1-yl)-7-methoxy-3-(4-methoxyphenyl)isoquinoline-1(2H)-one] | + ((+) signifies that the molecule induces tubulin assembly inhibition in vitro comprised between 6 and 25% of the DMSO control.) | — | 0.1 to 1 µM |  |  | 
5 | > 50 µM | 206 °C | COc1ccc(-c2[nH]c(=O)c3cc(OC)ccc3c2N2CCCCC2)cc1 [Compound 40, 4-(Piperidin-1-yl)-7-methoxy-3-(4-methoxyphenyl)isoquinoline-1(2H)-one] | +++ ((+++) signifies that the molecule induces tubulin assembly inhibition in vitro of more than 50% with respect to the DMSO control.) | — | 0.1 to 1 µM |  |  | 
6 | 25 to 50 µM | 222 to 224 °C | COc1ccc2c([N+](=O)[O-])c(-c3ccc(Br)cc3)[nH]c(=O)c2c1 [Compound 34, 3-(4-Bromophenyl)-7-methoxy-4-nitroisoquinolin-1(2H)-one] | +++ ((+++) signifies that the molecule induces tubulin assembly inhibition in vitro of more than 50% with respect to the DMSO control.) | *** | ≤ 0.1 µM |  |  | 
7 | > 50 µM | 138 to 140 °C | COc1ccc(-c2nc(OC)c3cc(OC)ccc3c2Br)cc1 [Compound 27, 4-Bromo-1,7-Dimethoxy-3-(4-methoxyphenyl)isoquinoline] | + ((+) signifies that the molecule induces tubulin assembly inhibition in vitro comprised between 6 and 25% of the DMSO control.) | — | 25 to 50 µM |  |  | 
8 | > 50 µM | 196 to 198 °C | COc1ccc(-c2nc(Cl)c3cc(OC)ccc3c2[N+](=O)[O-])cc1 [Compound 17, 1-Chloro-7-methoxy-3-(4-methoxyphenyl)-4-nitroisoquinoline] | ++ ((++) signifies that the molecule induces tubulin assembly inhibition in vitro comprised between 26 and 50% of the DMSO control.) | — | 25 to 50 µM |  |  | 
9 | > 50 µM | 220 °C | COC(=O)c1nnn(-c2c(-c3ccc(OC)cc3)[nH]c(=O)c3cc(OC)ccc23)c1C(=O)OC [Compound 48, Dimethyl 1-[7-methoxy-3-(4-methoxyphenyl)-1-oxo-1,2-dihydroisoquinolin-4-yl]-1H-[1,2,3]triazole-4,5-dicarboxylate] | — ((−) signifies that the molecule induces little or no tubulin assembly inhibition in vitro: 0+ or − −5% of the DMSO control.) | — | 25 to 50 µM | * |  | 
10 | 10 to 24 µM | > 250 °C | COc1ccc2cc(-c3ccc(Br)cc3)[nH]c(=O)c2c1 [Compound 32, 3-(4-Bromophenyl)-7-methoxyisoquinolin-1(2H)-one] | — ((−) signifies that the molecule induces little or no tubulin assembly inhibition in vitro: 0+ or − −5% of the DMSO control.) | **** | 0.1 to 1 µM |  |  | 
11 | > 50 µM | 226 to 228 °C | COc1ccc(-c2cc3ccc(OC)cc3c(S(=O)(=O)O)n2)cc1 [Compound 13, 7-methoxy-3-(4-methoxyphenyl)isoquinoline-1-sulphonic acid] | ++ ((++) signifies that the molecule induces tubulin assembly inhibition in vitro comprised between 26 and 50% of the DMSO control.) | — | > 50 µM |  | * | 
12 | > 50 µM | 216 to 218 °C | COc1ccc(-c2[nH]c(=O)c3cc(OC)ccc3c2I)cc1 [Compound 16, 4-Iodo-7-methoxy-3-(4-methoxyphenyl)isoquinoline-1(2H)-one] | +++ ((+++) signifies that the molecule induces tubulin assembly inhibition in vitro of more than 50% with respect to the DMSO control.) | *** | 0.1 to 1 µM |  |  | 
13 | ≤ 9 µM | 188 to 190 °C | COc1ccc(-c2cc3ccc(OC)cc3c(=S)[nH]2)cc1 [Compound 12, 7-Methoxy-3-(4-methoxyphenyl)isoquinoline-1(2H)-thione] | ++ ((++) signifies that the molecule induces tubulin assembly inhibition in vitro comprised between 26 and 50% of the DMSO control.) | — | 1 to 25 µM |  | * | 
14 | > 50 µM | 209 to 210 °C | C#Cc1c(-c2ccc(OC)cc2)nc(OC)c2cc(OC)ccc12 [Compound 38, 4-Ethynyl-1,7-dimethoxy-3-(4-methoxyphenyl)isoquinoline] | + ((+) signifies that the molecule induces tubulin assembly inhibition in vitro comprised between 6 and 25% of the DMSO control.) | — | > 50 µM |  |  | 
15 | > 50 µM | 192 to 194 °C | COc1ccc(-c2nc(OCC#N)c3cc(OC)ccc3c2[N+](=O)[O-])cc1 [Compound 31, 2-(7-Methoxy-3-(4-methoxyphenyl)-4-nitroisoquinolin-1-yloxy)ethanenitrile] | ++ ((++) signifies that the molecule induces tubulin assembly inhibition in vitro comprised between 26 and 50% of the DMSO control.) | — | > 50 µM |  |  | 
16 | 25 to 50 µM | 162 to 164 °C | C#CCn1c(-c2ccc(OC)cc2)c([N+](=O)[O-])c2ccc(OC)cc2c1=O [Compound 28, 7-Methoxy-3-(4-methoxyphenyl)-4-nitro-2-(propargyl)isoquinolin-1(2H)-one] | — ((−) signifies that the molecule induces little or no tubulin assembly inhibition in vitro: 0+ or − −5% of the DMSO control.) | — | > 50 µM |  |  | **

Row | Structure (SMILES) | IC50 (PP1α (PP1CA)) | melting point | Tubulin polymerization inhibition (bovine brain tubulin) | Effect on Hela at 25 μM (HeLa cells) | GI50 (HMEC cells) | Effect on Hela at 50 μM (HeLa cells; 50 μM) | Effect on Hela at 100 μM (HeLa cells) | Effect on Hela at 50 and 100 μM (HeLa cells; 50 and 100 μM)
17 | COc1ccc2c([N+](=O)[O-])c(-c3ccc(C#C[Si](C)(C)C)cc3)[nH]c(=O)c2c1 [Compound 35, 7-Methoxy-4-nitro-3-(4-((trimethylsilyl)ethynyl)phenyl)isoquinolin-1(2H)-one] | 10 to 24 µM | 178 to 180 °C | — ((−) signifies that the molecule induces little or no tubulin assembly inhibition in vitro: 0+ or − −5% of the DMSO control.) | *** | ≤ 0.1 µM |  |  | 
